Experimental findings from US9637460B2, “Isotopically enriched arylsulfonamide CCR3 antagonists” (Axikin Pharmaceuticals, Inc., priority 2012, dated 2017) are described below.

Read-outs that look alike come from different tables or passages of the source.

A short description of data set [1]: Pharmacokinetic studies in rats. As to conditions: rat, in vivo, 3 mg/kg, 3 mg/kg in EtOH/Solutol/H2O formulation. The method, then: Pharmacokinetic properties of 4-(3,5-dichloro-2,4,6-trideuteriumphenoxy)-3-(3-oxo-piperazine-1-sulfonyl)-2,5,6-trideuteriumbenzonitrile 36 and 4-(3,5-dichlorophenoxy)-3-(3-oxo-piperazine-1-sulfonyl)benzonitrile C1 were determined using rats. Animals were randomized into two groups, each having 3 rats. 4-(3,5-Dichloro-2,4,6-trideuteriumphenoxy)-3-(3-oxo-piperazine-1-sulfonyl)-2,5,6-trideuteriumbenzonitrile 36 and 4-(3,5-dichlorophenoxy)-3-(3-oxo-piperazine-1-sulfonyl)benzonitrile C1 were administered at 3 mg/kg in EtOH/Solutol/H2O formulations. Pharmacokinetic parameters of 4-(3,5-dichloro-2,4,6-trideuteriumphenoxy)-3-(3-oxo-piperazine-1-sulfonyl)-2,5,6-trideuteriumbenzonitrile 36 and 4-(3,5-dichlorophenoxy)-3-(3-oxo-piperazine-1-sulfonyl)benzonitrile C1 are summarized in Table 2. 4-(3,5-dichlorophenoxy)-3-(3-oxo-piperazine-1-sulfonyl)benzonitrile C1 was synthesized according to the procedure as described in U.S. Pat. App. Pub. No.: US 2011/0218207, the disclosure of which is incorporated herein by reference in its entirety.

In turn, `[2H]c1c(Cl)c([2H])c(Oc2c([2H])c([2H])c(C#N)c([2H])c2S(=O)(=O)N2CCNC(=O)C2)c([2H])c1Cl` [Compound 36, 4-(3,5-dichloro-2,4,6-trideuteriumphenoxy)-3-(3-oxo-piperazine-1-sulfonyl)-2,5,6-trideuteriumbenzonitrile] registered a melting point of 207 to 210 °C. Moreover, in data set [1] (Rat 1), the highest level (Cmax) was 166 ng/mL, the Tmax is 2 h and the half-life is 3.3 h. In data set [1] (Rat 1, read-out: AUC), the AUC was 820 ng·h/mL. The AUC in data set [1] (Rat 1, read-out: AUCnorm) came to 273 ng·h/mL. In addition, in data set [1] (Rat 2), the peak level (Cmax) was 46.3 ng/mL, the time to peak (Tmax) worked out at 4 h and the half-life is 1.12 h. Moreover, in data set [1] (Rat 2, read-out: AUC), the AUC is 272 ng·h/mL. For the same molecule, in data set [1] (Rat 2, read-out: AUCnorm), the AUC came out at 90.6 ng·h/mL. Also, in data set [1] (Rat 3), the Cmax is 128 ng/mL, the Tmax turned out to be 0.3 h and the half-life is 1.51 h. Moreover, the AUC in data set [1] (Rat 3, read-out: AUC) turned out to be 490 ng·h/mL. The AUC in data set [1] (Rat 3, read-out: AUCnorm) is 163 ng·h/mL.

Take `N#Cc1ccc(Oc2cc(Cl)cc(Cl)c2)c(S(=O)(=O)N2CCNC(=O)C2)c1` [Compound C1, 4-(3,5-dichlorophenoxy)-3-(3-oxo-piperazine-1-sulfonyl)benzonitrile, reference compound]: the Cmax in data set [1] (Rat 1) is 34.4 ng/mL; in data set [1] (Rat 2), 65.8 ng/mL; in data set [1] (Rat 3) it was 59.9 ng/mL. Moreover, the figures for the Tmax in data set [1] (Rat 1), in data set [1] (Rat 2) and in data set [1] (Rat 3) were 2 h, 4 h and 2 h, respectively. The half-life was 5.52 h in data set [1] (Rat 1), 3.72 h in data set [1] (Rat 2) and 4.04 h in data set [1] (Rat 3). Further, the AUC is 200 ng·h/mL in data set [1] (Rat 1, read-out: AUC); 66.6 ng·h/mL in data set [1] (Rat 1, read-out: AUCnorm); 450 ng·h/mL in data set [1] (Rat 2, read-out: AUC); 150 ng·h/mL in data set [1] (Rat 2, read-out: AUCnorm); 317 ng·h/mL in data set [1] (Rat 3, read-out: AUC); 106 ng·h/mL in data set [1] (Rat 3, read-out: AUCnorm).

A word on the Cmax: it is the maximum level reached in the sampled fluid or tissue. By Tmax is commonly meant the time from dosing to the highest level. A word on the half-life: it is the time needed for the level to fall by half in the phase considered. A low value points to rapid decline. One may read the melting point as the temperature, or range, at which the solid turns liquid.
